According to US11000516B2 (priority 2015, dated 2021):

What was measured:
[1] = test system: S221 (mouse-adapted DENV2 strain); assay: Antiviral effect in BHK-21 cells, plaque assay of supernatant 48 h pi; assay type: cell-based; settings: Dengue virus, DENV2, BHK-21
Experimental: (§1) Cells were infected with DENV strains for 1 hour at 37° C. and washed once with culture media. […] The supernatants were subjected to standard plaque assay and the EC50 values were determined using the GraphPad Prism software.
(§2) NITD008, an adenosine analog inhibitor of DENV polymerase (Yin et al., 2009) was used as a positive control.

[2] = test system: EDEN1 (clinical DENV1 isolate); assay: as above; assay type: cell-based
Experimental: as §1, §2

[3] = test system: EDEN2 (clinical DENV2 isolate); assay: as above; assay type: cell-based; settings: Dengue virus, DENV2, BHK-21
Experimental: as §1, §2

[4] = test system: S221 (mouse-adapted DENV2 strain); assay: Ab-mediated infection of THP-1 cells with enhancing concentration of 4G2 Ab; assay type: cell-based; settings: S221, MOI 2, single experiment
Experimental: as §1, §2

[5] = test system: EDEN1 (clinical DENV1 isolate); assay: as above; assay type: cell-based; settings: EDEN1, MOI 2, single experiment
Experimental: as §1, §2

[6] = test system: EDEN2 (clinical DENV2 isolate); assay: as above; assay type: cell-based; settings: EDEN2, MOI 50, single experiment
Experimental: as §1, §2

[7] = test system: EDEN2; assay: Non-lethal viremia mouse model; assay type: in vivo, mice
Experimental: (§3) Mice were inoculated i.v. with EDEN1 (7×10^7 pfu) or EDEN2 (1×10^8 pfu). […] Average viral copy numbers on day 1 and 2 were measured using mixed serum of each group. […] A P value less than 0.05 was considered significant (*P<0.05). The number of mice per group is 6. […] Average viral copy numbers on days 4 and 5 were measured using mixed serum of each group. […] The virological log reduction (VLR) from day 3 to day 6 was also shown as the mean value and standard deviations. The number of mice per group is 6.
(§4) Since dengue fever patients in general present at a clinic when viremia is at a peak level (Low et al., 2014; Nguyen et al., 2013; Tricou et al., 2010), we next compared the 2 different dosing regimens; one started at the time of infection and another started at the time of peak viremia (on day 3 pi) similar to human situation (FIG. 4A). In this experiment, we used a non-lethal viremia mouse model, which permits the tracking of viremia kinetics for a longer period of time (FIG. 1B).

[8] = test system: EDEN1; assay: Non-lethal viremia mouse model; assay type: in vivo, mice
Experimental: as §3, §4

[9] = test system: DENV2; assay: Survival of DENV2 infected mice in a lethal ADE model of viremia (FIG. 5B); assay type: in vivo
Experimental: Survival at day 12 was 1/8 (13%) at 10 mg/kg twice daily (BID), 5/8 (63%) at 25 mg/kg BID, 7/7 (100%) at 50 mg/kg BID, and 0/8 (0%) at 100 mg/kg once daily (QD).

[10] = over the tolerated dose range; cited from earlier work
[11] = human, cited from earlier work
[12] = test system: S221 (mouse-adapted DENV2 strain); assay: Antiviral effect in HuH-7 cells, plaque assay of supernatant 48 h pi; assay type: cell-based
Experimental: as §1, §2

[13] = test system: EDEN1 (clinical DENV1 isolate); assay: as above; assay type: cell-based
Experimental: as §1, §2

[14] = test system: EDEN2 (clinical DENV2 isolate); assay: as above; assay type: cell-based
Experimental: as §1, §2

[15] = test system: DENV2 strain #013; assay: Non-lethal mouse model with CELADEN strain; assay type: in vivo, mice
Experimental: (§5) EDEN1, EDEN2 and S221 were used as control virus strains. The MOI of each strain was indicated in supplementary FIG. 2. After 48 hours pi, virus titer in the supernatants was determined by standard plaque assay using BHK-21 cells. The percentages of virus titer were calculated based on virus infection control of each strain. Error bars indicate standard deviations from duplicate experiments. (B and C) Mice were inoculated i.v. with DENV2 strains, #031 (2×10^7 pfu), #013 (1×10^7 pfu) or #036 (2×10^7 pfu). […] Average viral copy numbers on day 1-2 were measured using mixed serum of each group. Viral copy number on day 3 was measured individually and the graphs show the average results with standard deviations. A P value less than 0.05 was considered significant (*P<0.05). […] Viral copy number on day 3-6 was measured individually and shown in the graphs as the average results with standard deviations. The VLR from day 3 to day 6 was also shown as the mean value and standard deviations. The number of mice per group is 6.
(§6) Since infection levels in HuH-7 cells are different among the strains, the MOI of each strain was varied to obtain similar levels of virus titer in the supernatant (FIG. 8).

[16] = test system: DENV2 strain #036; assay: Non-lethal mouse model with CELADEN strain; assay type: in vivo, mice
Experimental: as §5, §6

[17] = test system: DENV2 strain #031; assay: Non-lethal mouse model with CELADEN strain; assay type: in vivo, mice
Experimental: as §5, §6

[18] = test system: EDEN1, EDEN2, S221; assay: Antiviral effect in BHK-21 cells, all virus strains; assay type: cell-based, DENV; settings: Dengue virus
Experimental: as §1, §2

[19] = Dengue virus, DENV2, THP-1, THP-1 with 4G2 Ab

SMILES: CCCC(=O)O[C@H]1CN2CC[C@H](O)[C@@H]2[C@@H](O)[C@@H]1O [celgosivir]
- EC50 [1]: 119 nM
- EC50 ([2]; BHK-21, BHK-21, EDEN1, MOI 0.01): 66 nM
- EC50 ([2]; BHK-21, BHK-21, EDEN1, MOI 0.3): 105 nM
- EC50 [3]: 61 nM
- EC50 [4, 19]: 2100 nM
- EC50 ([4]; THP-1 with 4G2 Ab): 2140 nM
- EC50 ([5]; THP-1, THP-1 with 4G2 Ab): 3200 nM
- EC50 ([5]; THP-1 with 4G2 Ab): 3240 nM
- EC50 [6, 19]: 800 nM
- EC50 ([6]; THP-1 with 4G2 Ab): 756 nM
- log reduction of viremia (VLR) from day 3 to day 6 ([7]; EDEN2, celgosivir 50 mg/kg BID started at peak viremia (day 3)): 2.62
- viremia reduction on day 3 pi ([7]; EDEN2, non-lethal model, celgosivir 50 mg/kg BID from time of infection): 9.0 fold
- log reduction of viremia (VLR) from day 3 to day 6 ([8]; EDEN1, celgosivir 50 mg/kg BID started at peak viremia (day 3)): 0.85
- viremia reduction on day 3 pi ([8]; EDEN1, non-lethal model, celgosivir 50 mg/kg BID from time of infection): 2.9 fold
- Survival at day 12 ([9]; 10 mg/kg twice daily (BID)): 13%
- Survival at day 12 ([9]; 25 mg/kg BID): 63%
- Survival at day 12 ([9]; 50 mg/kg BID): 100%
- Survival at day 12 ([9]; 100 mg/kg once daily (QD)): 0%
- pharmacokinetics dose dependence [10]: linear with dose
- adverse event profile ([11]; CELADEN study regimen): higher incidence of GI effects, but not increased severity
- maximum daily dose, total dose ([11]; in theory): ≤ 600 mg
- maximum dose as a single dose ([11]; in theory): ≤ 400 mg
- EC50 ([12]; Dengue virus, DENV2, Huh-7, HuH-7, S221, MOI 0.3): 5100 nM
- EC50 ([12]; HuH-7, S221, MOI 0.3): 5090 nM
- EC50 ([13]; HuH-7, EDEN1, MOI 0.01): 5960 nM
- EC50 ([13]; HuH-7, EDEN1, MOI 0.3): 17400 nM
- EC50 ([13]; Huh-7, HuH-7, EDEN1, MOI 0.01): 6000 nM
- EC50 ([13]; Huh-7, HuH-7, EDEN1, MOI 0.3): 17400 nM
- EC50 ([14]; Dengue virus, DENV2, Huh-7, HuH-7, EDEN2, MOI 0.3): 820 nM
- EC50 ([14]; HuH-7, EDEN2, MOI 0.3): 824 nM
- viremia reduction on day 3 pi ([15]; #013, 50 mg/kg BID from time of infection): 6.8 fold
- VLR from day 3 to day 6 ([15]; #013, 50 mg/kg BID started during peak viremia (day 3)): 2.32
- viremia reduction on day 3 pi ([16]; #036, 50 mg/kg BID from time of infection): 12.5 fold
- VLR from day 3 to day 6 ([16]; #036, 50 mg/kg BID started during peak viremia (day 3)): 2.14
- viremia reduction on day 3 pi ([17]; #031, 50 mg/kg BID from time of infection): 7.8 fold
- VLR from day 3 to day 6 ([17]; #031, 50 mg/kg BID started during peak viremia (day 3)): 2.63
- EC50 [18]: < 200 nM
